Test system: DLD1 cells
Test: Effect of anti-cancer drug on cellular acidity (AO red fluorescence, flow cytometry) and cell growth
Assay type: cell-based, human
Conditions: DLD1 versus NCl/Adr cells at a given dose; AO red fluorescence after 6 hours exposure; growth 3 days after addition of drug, hemacytometer and trypan blue exclusion; FIG. 5
Protocol: Cells plated at 25% confluency were exposed to various doses of the drug for 6 hours and stained with AO (1 μg/ml, final concentration) for 30 minutes. Cells were washed 3× with PBS to remove residual stain, trypsinized to obtain a liquid suspension and assessed on a flow cytometer (FACSCalibur, Becton Dickinson San Jose Calif.). The red fluorescence of AO emanating from the cells was recorded on a linear scale in the cytometer's FL2 channel (emission filter >600 nm). A total of 30K cells were collected for post acquisition analysis with WinMDI Version 2.8 software (The Scripps Research Institute, La Jolla, Calif.). […] FIG. 5b plots the geometric mean of AO red fluorescence channel intensity against drug concentration for both DLD1 and NCl/Adr cells. In parallel cultures, cells were assessed for growth 3 days after the addition of drug (FIG. 5 c) —cells were enumerated with a hemacytometer and trypan blue exclusion staining.

In the case of `CC(=O)O[C@H]1C(=O)[C@@]2(C)[C@H]([C@H](OC(=O)c3ccccc3)[C@]3(O)C[C@H](OC(=O)[C@H](O)[C@@H](NC(=O)c4ccccc4)c4ccccc4)C(C)=C1C3(C)C)[C@]1(OC(C)=O)CO[C@@H]1C[C@@H]2O` [paclitaxel], the “sensitivity of cancer cells to the drug (cell growth, reflected by acidic content of cells)” value is reported as “DLD1 cells are more sensitive to paclitaxel than NCl/Adr”.
